As usually defined, the solubility is how much of the substance goes into solution per volume.

Data set [1] is described as follows: TGA (Thermal Gravimetric Analysis) weight loss. It is filed as physicochemical. Here is the method:
TGA (Thermal Gravimetric Analysis): Samples of compounds (4˜6 mg) were weighed into the pan, and heated under nitrogen purge using a ramp rate of 20° C./min over the range of 30° C.˜350° C.

Data set [2] is described as follows: Solubility of salts in water, SGF and FaSSIF at 25° C. for 24 hours (HPLC).
Experimental: (§2) About 5 mg of seven kinds of salts were weighed into each vial, and 2 mL of medium was added, respectively. The medium included water, SGF and FaSSIF. All samples were stirred at 25° C. for 24 hours.
Data set [3] in a line: physchem. To be noted: 25 °C, thermodynamic from solid, Solubility (mg/mL).
Experimental: as §2
Data set [4] concerns serum LDL-C, TC, Apo B, and PCSK9. As to the kind of experiment: Proof-of-mechanism phase 1b study in subjects with elevated LDL-C. It is filed as in vivo, human. To be noted: 28 days, compared with placebo cohort. The text has this: (§1) Compound 1a has undergone a double-blind, randomized phase 1a study conducted in healthy volunteers. […] Currently, a phase 2 POC trial is underway in China in patients with hypercholesterolemia.

Data set [5] is described as follows: Solid stability at 40° C./0% RH (closed) and 40° C./75% RH (open), HPLC. In kind it is physicochemical. Particulars: for 0 day % remaining / 5 day % remaining / 10 day % remaining: solid. Here is the method:
Solid stability: 5 mg of 2a was weighed into scintillation vials sealed properly and stored at 40° C./0% RH(closed), 40° C./75% RH(open) under dark conditions to avoid the effect of light on stability. Samples were collected at day 0, 5 and 10 and analyzed by HPLC.
Solid stability: 5 mg of compound was weighed into vials sealed properly and stored at 40° C./0% RH (closed), 40° C./75% RH (open) under dark conditions to avoid the effect of light. Samples were analyzed by HPLC at days 0, 7, and 21.
Solid stability of compound 1a: 5 mg compound were accurately weighed into scintillation vials sealed properly and stored at 40° C./0% RH(closed), 40° C./75% RH(open) under dark condition to avoid the effect of light on stability. Samples should be collected at day 0, 5 and 10 days and analyzed by HPLC.

The subject of data set [6] is serum PCSK9. As to the kind of experiment: Double-blind, randomized phase 1a study in healthy volunteers. In kind it is in vivo, human. Particulars: 10 days oral 300 mg QD, compared to baseline.
Text: as §1

Data set [7] in a line: Long term stability at 30° C./65% RH. In kind it is physicochemical.
Data set [8] is described as follows: Phase 1 studies, safety and tolerability in healthy volunteers and hyperlipidemic subjects. In kind it is in vivo, human.
Text: as §1

[9] abbreviates: Medium: FaSSIF, 25° C., stirred 24 hours, HPLC.
Setting [10] is: Medium: SGF, 25° C., stirred 24 hours, HPLC.
The mark [11] stands for this setting: Medium: Water, 25° C., stirred 24 hours, HPLC.

Counter-ions that a name gives are not always drawn.

For the compound `COc1ccc2c(c1)CCN1Cc3c(ccc(OC)c3OS(=O)(=O)c3cccc(F)c3)C[C@H]21` [hydrobromide salt], the “TGA weight loss (from RT to 120° C.)” value in data set [1] stood at 1.50%. This compound also showed a TGA weight loss in data set [1] (room temperature to 120° C.) of 1.50%. Also, the “solubility” value turned out to be 2 µg/mL in data set [2] (setting [9]), 156 µg/mL in data set [2] (setting [10]) and 163 µg/mL in data set [2] (setting [11]).
Consider hydrochloride, for which, in data set [1], the “TGA weight loss (from RT to 120° C.)” value is on record as 0.09%.
Turning to `COc1ccc2c(c1)CCN1Cc3c(ccc(OC)c3OS(=O)(=O)c3cccc(F)c3)C[C@H]21` [besylate], the “TGA weight loss (from RT to 120° C.)” value in data set [1] turned out to be 0.24%. For the same compound, the “TGA weight loss (in words)” value in data set [1] (room temperature to 120° C.) is reported as “no significant weight loss”. Moreover, the results for the “solubility” value in data set [2] (setting [9]), in data set [2] (setting [10]) and in data set [2] (setting [11]) were 1 µg/mL, 214 µg/mL and 110 µg/mL, respectively.
Regarding `COc1ccc2c(c1)CCN1Cc3c(ccc(OC)c3OS(=O)(=O)c3cccc(F)c3)C[C@H]21` [tosylate], the “TGA weight loss (from RT to 120° C.)” value in data set [1] was determined as 0.60%. Moreover, the “TGA weight loss (in words)” value in data set [1] (room temperature to 120° C.) is “almost no significant weight loss”. For the same compound, the results for the solubility at 24 h in data set [3] (fassif), in data set [3] (simulated gastric fluid) and in data set [3] (water) were less than 1 µg/mL, 399 µg/mL and 411 µg/mL, respectively.
Turning to `COc1ccc2c(c1)CCN1Cc3c(ccc(OC)c3OS(=O)(=O)c3cccc(F)c3)C[C@H]21` [maleate], in data set [1], the “TGA weight loss (from RT to 120° C.)” value is reported as 0.44%. Further, the “TGA weight loss (in words)” value in data set [1] (room temperature to 120° C.) is “almost no obvious weight loss”. For the same compound, the entries for the “solubility” value in data set [2] (setting [9]), in data set [2] (setting [10]) and in data set [2] (setting [11]) were 1 µg/mL, 221 µg/mL and 86 µg/mL, respectively.
Take `COc1ccc2c(c1)CCN1Cc3c(ccc(OC)c3OS(=O)(=O)c3cccc(F)c3)C[C@H]21` [Compound 1a, 3,10-dimethoxy-5,8,13,13a-tetrahydro-6H-isoquinolino[3,2-a]isoquinolin-9-yl 3-fluorobenzenesulfonate]: the “serum Apo B” value in data set [4] was “significantly reduced”. The “serum LDL-C” value in data set [4] was “significantly reduced”. Further, the “serum PCSK9 levels” value in data set [4] and in data set [6] was “significantly reduced” throughout. Moreover, the “serum TC” value in data set [4] is given as “significantly reduced”. Besides, the “Solid-state stability (HPLC)” value in data set [5] (40° C./0% RH (closed) and 40° C./75% RH (open), dark, up to 10 days) is on record as “substantially stable”. In addition, the “0 day % remaining” value in data set [5] (40° C. (0% RH, closed)) is 99.65%; in data set [5] (40° C./75% RH (open)), 99.65%. For the same compound, the “5 day % remaining” value in data set [5] (40° C. (0% RH, closed)) is on record as 101.65%; in data set [5] (40° C./75% RH (open)) it was 100.66%. The “10 day % remaining” value worked out at 100.85% in data set [5] (40° C. (0% RH, closed)) and 101.31% in data set [5] (40° C./75% RH (open)). In addition, the “% Remaining” value stood at 100.30% in data set [7] (1 month); 100.00% in data set [7] (3 month); 99.30% in data set [7] (6 month); 99.60% in data set [7] (12 month); 99.20% in data set [7] (18 month); 99.50% in data set [7] (24 month). Also, the “% Remaining” value in data set [7] (36 month) came to 100.40%; in data set [7] (time 0), 100.10%. In data set [7] (up to 36 months), the Long term stability result is given as “stable”. Moreover, the safety profile result in data set [8] is on record as “favorable safety profile”. In addition, the tolerability result in data set [8] is given as “well tolerated”.
For `COc1ccc2c(c1)CCN1Cc3c(ccc(OC)c3OS(=O)(=O)c3cccc(F)c3)C[C@H]21` [sulfate], in data set [1], the “TGA weight loss (from RT to 120° C.)” value is listed as 0.12%. Moreover, the “TGA weight loss (in words)” value in data set [1] (room temperature to 120° C.) is given as “no weight loss”. In addition, in data set [2] (FaSSIF, 25 °C, fassif, thermodynamic from solid, Solubility (mg/mL), Medium: FaSSIF, 25° C., stirred 24 hours, HPLC), the solubility at 24 h was 2 µg/mL. Moreover, the “solubility” value stood at 496 µg/mL in data set [2] (setting [10]) and 1370 µg/mL in data set [2] (setting [11]). Moreover, the “Solubility compared with other polymorphs (summary)” value in data set [2] (summary of the Examples) is recorded as “generally more soluble than other polymorphs”. In addition, the “Solubility compared with other salts” value in data set [2] (water and SGF, 25° C., 24 hours) is on record as “better than that of other salts”.

The record behind these values is patent US20230279002A1, “Polymorphs of Crystalline Forms of 3,10-dimethoxy-5,8,13,13a-tetrahydro-6H-isoquinolino[3,2-a]isoquinolin-9-yl 3-fluorobenzenesulfonate and Salts Thereof” (CVI Pharmaceuticals Limited, priority 2020, published 2023).
